Laboratory results reported in patent US20050049278A1, “Benzo[1,3]dioxole compounds, pharmaceutical compositions thereof, and processes of making and using the same” (priority 2003, published 2005).
pEC50: −log10 of the molar value.

Tests used:
topoisomerase I = target: T1, topoisomerase I (Homo sapiens, UniProt P11387); test: Topoisomerase I assay (supercoiled pBluescript DNA, agarose gel); format: biochemical; settings: in vitro, FIG. 2
T1 construct: purchased Sigma-Aldrich
T1 sequence (P11387 1-765): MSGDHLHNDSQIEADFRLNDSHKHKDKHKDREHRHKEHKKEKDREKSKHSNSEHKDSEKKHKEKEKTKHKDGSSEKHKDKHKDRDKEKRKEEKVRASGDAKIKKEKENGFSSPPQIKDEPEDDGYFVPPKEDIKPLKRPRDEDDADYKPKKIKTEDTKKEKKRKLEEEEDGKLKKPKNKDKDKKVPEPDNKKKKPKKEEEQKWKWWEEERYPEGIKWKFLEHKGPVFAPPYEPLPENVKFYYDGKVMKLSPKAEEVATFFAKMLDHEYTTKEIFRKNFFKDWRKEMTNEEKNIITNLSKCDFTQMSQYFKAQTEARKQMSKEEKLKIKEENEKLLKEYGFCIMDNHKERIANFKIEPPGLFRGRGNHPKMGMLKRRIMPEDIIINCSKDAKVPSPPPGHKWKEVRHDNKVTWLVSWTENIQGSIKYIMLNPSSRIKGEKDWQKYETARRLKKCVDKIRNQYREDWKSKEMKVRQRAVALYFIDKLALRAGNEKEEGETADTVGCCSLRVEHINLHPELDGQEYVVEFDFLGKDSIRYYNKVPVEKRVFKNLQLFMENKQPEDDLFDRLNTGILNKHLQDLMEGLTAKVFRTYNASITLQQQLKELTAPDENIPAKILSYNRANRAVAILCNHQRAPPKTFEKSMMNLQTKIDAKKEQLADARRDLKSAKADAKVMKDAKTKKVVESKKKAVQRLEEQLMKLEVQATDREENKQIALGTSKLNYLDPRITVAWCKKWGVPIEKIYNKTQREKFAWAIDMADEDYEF
Protocol: (§1) The ability of compounds that cause S-phase cell cycle arrest to inhibit topoisomerase I and topoisomerase II was examined. Analysis of topoisomerase activity was performed in 20 μl reactions with either topoisomerase I reaction buffer (10 mM TRIS-HCl, pH 7.5; 100 mM NaCl; 1 mM 2-mercaptoethanol) or topoisomerase II reaction buffer (50 mM Tris-HCl, pH 8; 120 mM KCl; 10 mM MgCl2; 0.5 mM dithiothreitol; 0.5 mM ATP; 30 μg BSA/ml) containing 125 ng supercoiled pBluescript DNA and either 2 U topoisomerase I (Sigma-Aldrich) or topoisomerase II (Topogen Inc.). After reaction at 37° C. for 20 minutes, the reactions were terminated through the addition of sodium dodecyl sulfate to 1% w/v and heating to 65° C. for 10 minutes. Proteinase K was then added to 10 μg/ml and digestion was allowed to proceed at 37° C. for 20 minutes before electrophoresis of the DNA in 0.8% agarose gels containing 0.5 μg/ml ethidium bromide for 18 hours at 75V in 0.5×TBE buffer. DNA was then visualized using a UV-transilluminator and the image was captured using a BioRad CCD camera and gel documentation system.

HEK293 cells [1] = test: Cell cycle analysis by FACS of HEK293 cells; format: cell-based; settings: HEK293, 50 μM, treated 16 to 24 hrs
Protocol: Fluorescence-activated cell sorting (FACS) analysis was used to examine the cell cycle state when the cells were incubated with compounds of formula (I) as well as several control compounds, including DMSO, noscapine (a known G2/M inhibitor), and colchicine (a known G2/M inhibitor).
In particular, HEK293 cells were cultured in DMEM media (Celigro) supplemented with 10% Fetal Bovine Serum (Tissue Culture Biologicals) and 1× Penicillin/Streptomycin/Glutamine (Gibco). The cells were grown at 37° C. with 5% CO2, plated in six-well plates at 2.5×10^6 cells/well, and treated for 16 to 24 hrs with the compounds at the concentrations shown in Table 1, below. The cells were then triturated off the bottom of the wells, washed 1× with PBS, then fixed with 70% ethanol, and stored at 4° C. before staining and FACS analysis.
The DNA content of cells was determined using a FacsVantage SE flow cytometry system (Becton Dickinson, San Jose, Calif.) and a Cellular DNA Flow Cytometric Analysis Kit (Roche Applied Science, Indianapolis, Ind.). Cell cycle analysis was performed using Cylchred 1.0.2 software.

HEK293 cells [2] = test: HEK293 cell viability, CellTiter 96 Aqueous One Solution Cell Proliferation assay; format: cell-based; settings: Homo sapiens, HEK293, 48 h, read-out: EC50
Protocol: The effect of various doses of compounds 5a, 5a,b, and 9a on the viability of HEK293 cells was examined using the CellTiter 96 Aqueous One Solution Cell Proliferation assay (Promega). The HEK293 cells were cultured in DMEM media (Cellgro) or phenol red-free DMEM (Gibco) supplemented with 10% Fetal Bovine Serum (Tissue Culture Biologicals) and 1× Penicillin/Streptomycin/Glutamine (Gibco). The cells were grown at 37° C. with 5% CO2. HEK293 cells were seeded into each well of a 96-well plate (5000 cells/well) and incubated overnight to allow the cells to attach. The culture media was removed and replaced with 100 μl of phenol red-free media containing the compounds 5a, 5a,b, and 9a at various concentrations. The cells were allowed to grow in the presence of the compounds for 48 hrs. At the end of the treatment, 20 μl of CellTiter 96 Aqueous One Solution reagent was added directly into each well, and the cells were incubated at 37° C. for 2 hrs. This reagent converts to a form that absorbs light at 490 nm by living cells. Thus, absorbance at 490 nm is proportional to the number of viable cells. The 490 nm absorbance was measured on a BioRad plate reader. Control wells containing no cells were included in this assay to correct for background absorbance.

topoisomerase II = target: T2, topoisomerase II (Homo sapiens, UniProt P11388); test: Topoisomerase II assay (supercoiled pBluescript DNA, agarose gel); format: biochemical; settings: in vitro, FIG. 2
T2 construct: purchased Topogen Inc
Protocol: as §1, with “Analysis” for “The ability of compounds that cause S-phase cell cycle arrest to inhibit topoisomerase I and topoisomerase II was examined. Analysis”

T2 sequence (P11388 whole entry): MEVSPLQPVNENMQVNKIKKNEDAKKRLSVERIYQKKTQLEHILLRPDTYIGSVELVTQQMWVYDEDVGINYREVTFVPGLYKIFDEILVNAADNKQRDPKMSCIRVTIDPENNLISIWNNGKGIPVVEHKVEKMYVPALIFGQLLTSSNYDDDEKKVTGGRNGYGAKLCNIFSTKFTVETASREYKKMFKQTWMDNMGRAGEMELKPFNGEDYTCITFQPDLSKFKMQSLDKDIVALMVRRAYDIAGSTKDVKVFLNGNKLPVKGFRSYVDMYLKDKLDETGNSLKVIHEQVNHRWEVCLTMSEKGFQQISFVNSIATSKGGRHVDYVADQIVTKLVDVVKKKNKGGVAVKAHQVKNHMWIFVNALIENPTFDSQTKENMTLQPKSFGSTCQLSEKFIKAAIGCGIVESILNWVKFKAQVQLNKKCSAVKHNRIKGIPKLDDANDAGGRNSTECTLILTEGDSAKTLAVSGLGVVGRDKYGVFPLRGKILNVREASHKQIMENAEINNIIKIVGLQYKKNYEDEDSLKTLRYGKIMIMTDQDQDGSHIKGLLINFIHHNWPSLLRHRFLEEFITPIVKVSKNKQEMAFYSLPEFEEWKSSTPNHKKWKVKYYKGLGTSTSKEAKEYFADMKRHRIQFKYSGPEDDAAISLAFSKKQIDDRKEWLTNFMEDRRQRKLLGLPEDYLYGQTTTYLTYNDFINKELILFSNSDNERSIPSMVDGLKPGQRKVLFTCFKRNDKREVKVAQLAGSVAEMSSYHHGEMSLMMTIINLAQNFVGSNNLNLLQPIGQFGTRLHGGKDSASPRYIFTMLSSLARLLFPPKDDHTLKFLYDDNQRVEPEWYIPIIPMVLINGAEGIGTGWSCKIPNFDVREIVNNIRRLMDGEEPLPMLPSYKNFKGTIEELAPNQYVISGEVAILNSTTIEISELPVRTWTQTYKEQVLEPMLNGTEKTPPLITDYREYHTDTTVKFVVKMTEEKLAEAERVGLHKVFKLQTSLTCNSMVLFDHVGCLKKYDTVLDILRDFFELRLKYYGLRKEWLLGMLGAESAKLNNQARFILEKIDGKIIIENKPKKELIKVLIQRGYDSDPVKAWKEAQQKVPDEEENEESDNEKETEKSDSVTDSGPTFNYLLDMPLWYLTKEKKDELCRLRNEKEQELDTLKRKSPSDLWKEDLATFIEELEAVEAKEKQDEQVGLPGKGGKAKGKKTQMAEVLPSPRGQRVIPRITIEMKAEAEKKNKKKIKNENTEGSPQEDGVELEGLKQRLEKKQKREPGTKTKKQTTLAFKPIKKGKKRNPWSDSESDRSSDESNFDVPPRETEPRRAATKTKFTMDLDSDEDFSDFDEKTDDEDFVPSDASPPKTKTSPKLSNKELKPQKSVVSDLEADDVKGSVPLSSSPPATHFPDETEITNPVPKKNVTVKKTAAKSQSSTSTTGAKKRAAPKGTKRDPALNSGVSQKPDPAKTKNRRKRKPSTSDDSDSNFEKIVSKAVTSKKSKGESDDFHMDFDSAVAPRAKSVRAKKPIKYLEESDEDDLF

## COc1ccc2c(c1OC)C(=O)O[C@@H]2[C@H]1c2c(cc3c(c2OC)OCO3)CCN1C [Noscapine, noscapine, reference compound]
Topoisomerase I
  inhibition of topoisomerase I activity: neither etoposide nor noscapine inhibited
HEK293 cells [1]
  Percent of Cells in G1: 19.2%
  Percent of Cells in G2/M: 49.6%
  Percent of Cells in S: 31.1%
HEK293 cells [2]
  pEC50: ~5.00
Topoisomerase II
  inhibition of topoisomerase II activity: neither topotecan nor noscapine acts as inhibitors
